{"source": "ChEMBL document CHEMBL4406923", "about": "“New Potent DOT1L Inhibitors for in Vivo Evaluation in Mouse” (ACS Med Chem Lett, 2019)", "key": {"[1]": {"biological_target": "Histone-lysine N-methyltransferase SUV39H2 (Homo sapiens) (UniProt Q9H5I1)", "sequence (Q9H5I1 whole entry)": "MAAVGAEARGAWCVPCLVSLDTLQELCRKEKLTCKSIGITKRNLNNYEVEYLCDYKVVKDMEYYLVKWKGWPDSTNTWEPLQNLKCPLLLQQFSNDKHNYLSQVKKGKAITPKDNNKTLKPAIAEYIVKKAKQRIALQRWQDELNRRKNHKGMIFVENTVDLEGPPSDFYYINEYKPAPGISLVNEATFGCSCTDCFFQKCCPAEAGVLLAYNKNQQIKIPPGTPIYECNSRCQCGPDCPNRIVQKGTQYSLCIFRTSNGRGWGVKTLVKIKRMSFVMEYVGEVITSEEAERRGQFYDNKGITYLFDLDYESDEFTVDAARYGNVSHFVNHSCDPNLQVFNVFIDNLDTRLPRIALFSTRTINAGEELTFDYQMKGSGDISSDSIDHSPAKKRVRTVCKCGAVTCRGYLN", "experiment": "Inhibition of Suv39H2 (unknown origin) at <5 uM using histone H3 peptide (1 to 21) as substrate in presence of co-factor SAM by LC-MS analysis"}, "Mus musculus": {"tested_on": "Mus musculus", "experiment": "In vivo inhibition of DOT1L in C57BL/6 mouse xenografted with human MV4-11 cells assessed as reduction in HOXA9 gene expression at <6 fold 300 mg/kg, po relative to control", "type": "functional"}, "Homo sapiens [2]": {"organism": "Homo sapiens", "experiment": "Inhibition of Ezh1 (Ezh1/EED/SUZ12/AEBP2/RbAP48) (unknown origin) at <5 uM using histone H3 peptide (21 to 44) as substrate in presence of co-factor SAM by LC-MS analysis"}, "MV4-11": {"tested_on": "MV4-11", "experiment": "Antitumor activity against human MV4-11 cells xenografted in C57BL/6 mouse assessed as reduction in tumor growth at <6 fold 300 mg/kg, po relative to control", "type": "functional"}, "[3]": {"biological_target": "Histone-lysine N-methyltransferase SETD2 (Homo sapiens) (UniProt Q9BYW2)", "sequence (Q9BYW2 whole entry)": "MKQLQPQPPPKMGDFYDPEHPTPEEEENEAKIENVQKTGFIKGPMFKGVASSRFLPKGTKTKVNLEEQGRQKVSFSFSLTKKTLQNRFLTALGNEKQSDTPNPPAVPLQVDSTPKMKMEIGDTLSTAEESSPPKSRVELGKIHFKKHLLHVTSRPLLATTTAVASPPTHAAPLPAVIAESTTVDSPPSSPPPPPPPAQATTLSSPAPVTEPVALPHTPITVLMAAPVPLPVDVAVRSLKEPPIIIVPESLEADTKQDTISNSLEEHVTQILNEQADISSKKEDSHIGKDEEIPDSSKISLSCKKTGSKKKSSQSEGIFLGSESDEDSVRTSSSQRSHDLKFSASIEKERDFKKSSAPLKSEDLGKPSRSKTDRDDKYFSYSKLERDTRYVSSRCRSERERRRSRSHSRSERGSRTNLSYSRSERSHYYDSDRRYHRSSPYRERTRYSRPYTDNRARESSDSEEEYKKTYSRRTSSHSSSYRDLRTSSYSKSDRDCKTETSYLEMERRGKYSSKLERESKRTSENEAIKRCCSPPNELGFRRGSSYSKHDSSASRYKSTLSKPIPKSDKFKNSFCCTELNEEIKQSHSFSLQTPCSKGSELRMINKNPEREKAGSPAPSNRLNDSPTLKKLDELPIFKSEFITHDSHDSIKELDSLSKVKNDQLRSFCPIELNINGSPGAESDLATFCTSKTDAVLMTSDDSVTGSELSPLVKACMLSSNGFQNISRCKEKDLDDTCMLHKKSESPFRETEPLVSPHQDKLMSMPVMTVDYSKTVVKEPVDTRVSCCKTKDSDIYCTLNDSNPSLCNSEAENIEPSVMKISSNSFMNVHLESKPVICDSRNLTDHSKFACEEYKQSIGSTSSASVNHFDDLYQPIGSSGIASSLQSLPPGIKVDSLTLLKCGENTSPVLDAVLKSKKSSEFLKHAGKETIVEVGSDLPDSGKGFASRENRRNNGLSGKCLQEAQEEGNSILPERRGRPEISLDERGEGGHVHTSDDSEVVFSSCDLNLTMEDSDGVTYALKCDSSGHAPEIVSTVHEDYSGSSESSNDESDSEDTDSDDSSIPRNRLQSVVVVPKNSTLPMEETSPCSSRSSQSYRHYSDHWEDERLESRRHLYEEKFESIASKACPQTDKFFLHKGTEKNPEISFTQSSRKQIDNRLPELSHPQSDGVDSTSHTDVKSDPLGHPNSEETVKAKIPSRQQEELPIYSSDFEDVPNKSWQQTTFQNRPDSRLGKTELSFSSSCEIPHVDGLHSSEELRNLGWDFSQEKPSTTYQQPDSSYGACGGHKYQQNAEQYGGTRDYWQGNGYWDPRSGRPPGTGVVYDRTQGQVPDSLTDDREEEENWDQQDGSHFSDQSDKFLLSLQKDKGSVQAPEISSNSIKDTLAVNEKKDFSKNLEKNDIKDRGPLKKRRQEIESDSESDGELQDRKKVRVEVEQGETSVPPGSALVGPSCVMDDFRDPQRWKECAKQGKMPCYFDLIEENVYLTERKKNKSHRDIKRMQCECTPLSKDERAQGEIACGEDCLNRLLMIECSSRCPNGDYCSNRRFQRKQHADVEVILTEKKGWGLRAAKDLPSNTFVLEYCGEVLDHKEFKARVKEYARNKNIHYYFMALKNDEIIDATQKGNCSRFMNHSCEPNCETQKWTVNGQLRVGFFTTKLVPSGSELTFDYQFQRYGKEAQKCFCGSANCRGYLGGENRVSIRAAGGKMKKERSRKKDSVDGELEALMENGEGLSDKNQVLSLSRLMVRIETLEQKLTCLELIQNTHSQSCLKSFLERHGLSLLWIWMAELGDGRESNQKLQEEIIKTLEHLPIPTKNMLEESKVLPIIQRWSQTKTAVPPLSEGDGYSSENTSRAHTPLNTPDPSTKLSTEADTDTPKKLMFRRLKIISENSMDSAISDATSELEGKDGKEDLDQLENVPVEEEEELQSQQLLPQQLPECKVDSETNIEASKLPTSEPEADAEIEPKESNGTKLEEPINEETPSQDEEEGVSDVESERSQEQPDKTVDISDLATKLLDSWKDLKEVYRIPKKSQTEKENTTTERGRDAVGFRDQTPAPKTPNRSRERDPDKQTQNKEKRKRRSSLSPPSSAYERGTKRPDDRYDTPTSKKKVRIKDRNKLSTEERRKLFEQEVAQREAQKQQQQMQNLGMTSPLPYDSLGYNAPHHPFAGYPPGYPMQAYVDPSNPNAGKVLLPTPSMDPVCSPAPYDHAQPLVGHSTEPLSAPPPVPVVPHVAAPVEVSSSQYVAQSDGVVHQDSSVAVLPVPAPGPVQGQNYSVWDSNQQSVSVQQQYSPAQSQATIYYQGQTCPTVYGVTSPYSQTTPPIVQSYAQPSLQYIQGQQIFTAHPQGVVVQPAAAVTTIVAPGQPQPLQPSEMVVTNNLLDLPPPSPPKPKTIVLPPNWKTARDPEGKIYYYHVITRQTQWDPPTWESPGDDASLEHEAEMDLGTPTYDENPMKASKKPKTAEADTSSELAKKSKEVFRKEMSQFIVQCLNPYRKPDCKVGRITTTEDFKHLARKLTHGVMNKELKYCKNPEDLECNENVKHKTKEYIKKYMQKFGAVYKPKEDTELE", "experiment": "Inhibition of SETD2 (unknown origin) at <5 uM using histone H3 peptide (21 to 44) as substrate in presence of co-factor SAM by LC-MS analysis"}, "[4]": {"biological_target": "T1, N-lysine methyltransferase KMT5A (Homo sapiens) (UniProt Q9NQR1)", "T1 sequence (whole entry)": "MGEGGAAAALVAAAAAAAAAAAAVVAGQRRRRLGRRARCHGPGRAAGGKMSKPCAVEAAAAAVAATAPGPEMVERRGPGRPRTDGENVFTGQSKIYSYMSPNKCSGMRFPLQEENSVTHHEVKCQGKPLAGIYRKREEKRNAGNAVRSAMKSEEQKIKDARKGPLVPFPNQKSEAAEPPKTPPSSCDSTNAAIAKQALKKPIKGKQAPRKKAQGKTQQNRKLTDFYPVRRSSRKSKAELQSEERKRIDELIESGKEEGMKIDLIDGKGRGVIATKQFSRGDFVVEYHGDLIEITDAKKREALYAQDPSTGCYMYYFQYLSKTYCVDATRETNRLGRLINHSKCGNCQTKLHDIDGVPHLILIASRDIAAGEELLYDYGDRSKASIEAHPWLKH", "experiment": "Inhibition of SETD8 (unknown origin) at <5 uM using H4 (11 to 33 residues) as substrate in presence of co-factor SAM by LC-MS analysis"}, "[5]": {"biological_target": "T2, Histone-lysine N-methyltransferase SETD7 (Homo sapiens) (UniProt Q8WTS6)", "T2 sequence (whole entry)": "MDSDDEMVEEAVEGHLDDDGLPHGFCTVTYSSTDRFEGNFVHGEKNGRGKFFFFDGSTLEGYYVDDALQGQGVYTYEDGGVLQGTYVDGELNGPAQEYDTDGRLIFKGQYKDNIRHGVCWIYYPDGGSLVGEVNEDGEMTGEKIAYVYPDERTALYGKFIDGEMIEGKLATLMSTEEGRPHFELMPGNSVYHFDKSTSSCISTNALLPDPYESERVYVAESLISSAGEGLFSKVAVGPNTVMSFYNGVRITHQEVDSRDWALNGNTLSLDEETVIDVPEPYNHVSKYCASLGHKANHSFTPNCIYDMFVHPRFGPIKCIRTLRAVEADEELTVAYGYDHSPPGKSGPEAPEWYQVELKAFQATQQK", "experiment": "Inhibition of Set7/9 (unknown origin) at <5 uM using H3 (1 to 21) as substrate in presence of co-factor SAM by LC-MS analysis"}, "[6]": {"biological_target": "T3, Histone-lysine N-methyltransferase, H3 lysine-79 specific (Homo sapiens, UniProt Q8TEK3)", "experiment": "Inhibition of 0.05 nM DOT1L (2 to 416 residues) (unknown origin) using biotinylated nucleosome as substrate and [3H]SAM as co-factor preincubated for 30 mins followed by substrate and cofactor addition and measured after 180 mins by scintillation proximity assay"}, "[7]": {"biological_target": "N-lysine methyltransferase SMYD2 (Homo sapiens) (UniProt Q9NRG4)", "sequence (Q9NRG4 whole entry, the tested form may be a part)": "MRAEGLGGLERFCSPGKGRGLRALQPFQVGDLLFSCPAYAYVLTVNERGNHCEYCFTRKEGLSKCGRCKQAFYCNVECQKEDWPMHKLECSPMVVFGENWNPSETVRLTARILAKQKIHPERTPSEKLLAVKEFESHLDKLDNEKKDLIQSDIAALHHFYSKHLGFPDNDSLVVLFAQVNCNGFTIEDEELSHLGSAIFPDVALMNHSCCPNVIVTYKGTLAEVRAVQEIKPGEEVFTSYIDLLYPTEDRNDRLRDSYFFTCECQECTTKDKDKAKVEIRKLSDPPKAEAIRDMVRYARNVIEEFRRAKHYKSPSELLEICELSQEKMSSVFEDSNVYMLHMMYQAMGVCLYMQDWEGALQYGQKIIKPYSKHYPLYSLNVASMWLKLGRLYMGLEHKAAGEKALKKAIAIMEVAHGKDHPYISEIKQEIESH", "experiment": "Inhibition of SmyD2 (unknown origin) at <5 uM using p53 (363 to 393 residues) as substrate in presence of co-factor SAM by LC-MS analysis"}, "[8]": {"experiment": "Drug concentration in C57BL/6 mouse blood at 300 mg/kg, po measured after 24 hrs", "type": "ADME, organism-based", "conditions": "read-out: Drug uptake"}, "[9]": {"experiment": "Drug concentration in C57BL/6 mouse blood at 300 mg/kg, po administered daily for 7 days", "type": "ADME, organism-based", "conditions": "in vivo, 168 h"}, "Homo sapiens [10]": {"organism": "Homo sapiens", "experiment": "Inhibition of PRC2 complex of human full-length N-terminal FLAG-tagged EZH2/EED/SUZ12/AEBP2/RbAp48 expressed in baculovirus expression system at <5 uM using histone H3 peptide (21 to 44) as substrate in presence of co-factor SAM by LC-MS analysis"}, "[11]": {"biological_target": "T3, Histone-lysine N-methyltransferase, H3 lysine-79 specific", "experiment": "Binding affinity to DOT1l (unknown origin) assessed as dissociation half life by SPR assay"}}, "note": "Active and inactive are the calls of the source. The rule behind the calls is not given here.", "data": [{"smiles": "COc1nc(Nc2cc(S(C)(=O)=O)ccc2N[C@@H](c2cccc3c2OC(F)(F)O3)c2ncccc2Cl)nc(N2CCNCC2)n1", "values": [{"measurement": "inhibition", "setting": "[1]", "value": "inactive"}, {"measurement": "fold change (FC)", "setting": "Mus musculus", "value": "<0.5"}, {"measurement": "inhibition", "setting": "Homo sapiens [2]", "value": "inactive"}, {"measurement": "fold change (FC)", "setting": "MV4-11", "value": "<0.5"}, {"measurement": "inhibition", "setting": "[3]", "value": "inactive"}, {"measurement": "inhibition", "setting": "[4]", "value": "inactive"}, {"measurement": "inhibition", "setting": "[5]", "value": "inactive"}, {"measurement": "IC50", "setting": "[6]", "value": 0.11, "unit": "nM"}, {"measurement": "inhibition", "setting": "[7]", "value": "inactive"}, {"measurement": "concentration at 24 h", "setting": "[8]", "value": "4 to 8", "unit": "µM"}, {"measurement": "Drug uptake", "setting": "[9]", "value": "Active"}, {"measurement": "inhibition", "setting": "Homo sapiens [10]", "value": "inactive"}, {"measurement": "T1/2", "setting": "[11]", "value": "> 5", "unit": "h"}]}]}
